From US11130793B2, “GLP-1/GLP-2 dual agonists” (Zealand Pharma A/S, priority 2016, dated 2021)
Square brackets hold non-standard residues; d marks the D form. Peptide text beside a SMILES is read from it. Aib = CC(C)(N)C(=O)O

Tests used:
[1] = biological target: T1, human GLP-1 receptor (Homo sapiens, UniProt P43220); assay: GLP-1 receptor potency assay (cAMP AlphaScreen, HEK293 cells stably expressing GLP-1R); type: cell-based; conditions: cAMP response, HEK293 cells expressing human GLP-1R; read-out: EC50 GLP-1
T1 construct: expressed in transfected cells
T1 sequence (P43220 24-463): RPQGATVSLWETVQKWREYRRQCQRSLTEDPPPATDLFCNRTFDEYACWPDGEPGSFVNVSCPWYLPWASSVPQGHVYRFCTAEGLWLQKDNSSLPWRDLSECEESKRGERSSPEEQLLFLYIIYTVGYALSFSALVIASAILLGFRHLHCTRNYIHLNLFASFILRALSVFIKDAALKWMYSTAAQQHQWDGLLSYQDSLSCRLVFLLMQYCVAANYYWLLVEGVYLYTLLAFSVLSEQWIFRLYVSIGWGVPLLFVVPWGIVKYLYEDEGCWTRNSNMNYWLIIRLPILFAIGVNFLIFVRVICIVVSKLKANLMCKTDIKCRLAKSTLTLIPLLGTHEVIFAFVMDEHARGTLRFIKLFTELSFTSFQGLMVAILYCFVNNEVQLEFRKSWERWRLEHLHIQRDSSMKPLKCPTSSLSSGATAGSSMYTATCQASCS
Excerpt: (§1) One useful in vitro assay for measuring GLP-1 and GLP-2 receptor activity is quantitation of cAMP, i.e. 3′-5′-cyclic adenosine monophosphate, which is a second messenger essential in many biological processes, and one of the most ubiquitous mechanisms for regulating cellular functions. […] Test compounds eliciting an increase in the intracellular level of cAMP can be tested in these assays, and the response normalized relative to a positive and negative control (vehicle) to calculate the EC50 and maximal response from the concentration response curve using the 4-parameter logistic (4PL) nonlinear model for curve fitting.
The cDNA encoding the human glucagon-like peptide 1 receptor (GLP-1R) (primary accession number P43220) was cloned from the cDNA BC112126 (MGC:138331/IMAGE:8327594). The DNA encoding the GLP-1-R was amplified by PCR using primers encoding terminal restriction sites for subcloning. The 5′-end primers additionally encoded a near Kozak consensus sequence to ensure efficient translation. […] The PCR products encoding the GLP-1-R were subcloned into a mammalian expression vector containing a neomycin (G418) resistance marker. The mammalian expression vectors encoding the GLP-1-R were transfected into HEK293 cells by a standard calcium phosphate transfection method. 48 hours post-transfection, cells were seeded for limited dilution cloning and selected with 1 mg/ml G418 in the culture medium. Following 3 weeks in G418 selection clones were picked and tested in a functional GLP-1 receptor potency assay as described below.
(§2) The cAMP AlphaScreen assay from Perkin Elmer was used to quantitate the cAMP response to activation of the GLP1 and GLP2 receptor, respectively. […] Data from test compounds eliciting an increase in the intracellular level of cAMP were normalized relative to the positive and negative control (vehicle) to calculate the EC50 and maximal response from the concentration response curve.

[2] = biological target: T2, human GLP-2 receptor (Homo sapiens, UniProt O95838, D470N); assay: GLP-2 receptor potency assay (cAMP AlphaScreen, HEK293 cells stably expressing GLP-2R); type: cell-based; conditions: cAMP response, HEK293 cells expressing human GLP-2R
T2 sequence (O95838 1-553 D470N): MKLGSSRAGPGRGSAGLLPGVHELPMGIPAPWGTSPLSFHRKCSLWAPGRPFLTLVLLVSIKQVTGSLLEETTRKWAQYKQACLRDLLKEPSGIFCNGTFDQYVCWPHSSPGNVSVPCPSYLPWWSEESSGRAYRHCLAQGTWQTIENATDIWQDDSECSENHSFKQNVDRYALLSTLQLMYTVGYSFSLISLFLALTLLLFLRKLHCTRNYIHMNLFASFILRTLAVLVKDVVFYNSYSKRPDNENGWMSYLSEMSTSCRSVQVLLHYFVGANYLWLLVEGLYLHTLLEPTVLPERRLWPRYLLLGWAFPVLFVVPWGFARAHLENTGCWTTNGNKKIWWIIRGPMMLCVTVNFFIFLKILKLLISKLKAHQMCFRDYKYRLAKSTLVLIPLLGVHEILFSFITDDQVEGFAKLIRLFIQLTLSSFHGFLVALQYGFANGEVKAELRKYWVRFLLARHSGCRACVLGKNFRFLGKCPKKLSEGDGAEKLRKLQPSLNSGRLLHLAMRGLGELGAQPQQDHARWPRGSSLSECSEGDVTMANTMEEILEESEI
Excerpt: as §1
The hGLP2-R was purchased from MRC-geneservice, Babraham, Cambridge as an Image clone: 5363415 (11924-I17). For subcloning into a mammalian expression vector, primers for subcloning were obtained from DNA-Technology, Risskov, Denmark. The 5′ and 3′ primers used for the PCR reaction include terminal restriction sites for cloning and the context of the 5′ primer is modified to a Kozak consensus without changing the sequence of the product encoded by the ORF. A standard PCR reaction was run using Image clone 5363415 (11924-117) as a template with the above mentioned primers and Polymerase Herculase II Fusion in a total vol. of 50 μl. The generated PCR product was purified using GFX PCR and Gel band purification kit, digested with restriction enzymes and cloned into the mammalian expression vector using Rapid DNA Ligation Kit. Ligation reaction was transformed to XL10 Gold Ultracompetent cells and colonies were picked for DNA production using Endofree Plasmid maxi kit. Subsequent sequence analysis was conducted by MWG Eurofins, Germany.
HEK293 cells were transfected using the Lipofectamine PLUS transfection method. The day before transfection, HEK293 cells were seeded in two T75 flasks at a density of 2×10^6 cells/T75 flask in cell culturing medium without antibiotics. On the day of transfection, cells were washed with 1×DPBS and medium was replaced with Optimem to a volume of 5 mL/T75 flask before addition of Lipofectamine-plasmid complexes were added gently and drop wise to the cells in T75 flasks and replaced with growth medium after 3 hours and again to growth medium supplemented with 500 μg/mL G418 after 24 hours. Following 4 weeks in G418 selection, clones were picked and tested in a functional GLP-2 receptor potency assay as described below.
as §2

Structure (SMILES)	EC50 [1] [nM]	EC50 [2] [nM]
CC[C@H](C)[C@H](NC(=O)[C@H](CC(C)C)NC(=O)[C@H](Cc1c[nH]c2ccccc12)NC(=O)[C@H](CC(N)=O)NC(=O)[C@@H](NC(=O)[C@H](Cc1ccccc1)NC(=O)[C@H](CC(=O)O)NC(=O)[C@H](CCCNC(=N)N)NC(=O)[C@H](C)NC(=O)[C@H](C)NC(=O)[C@H](CCC(N)=O)NC(=O)[C@H](CCC(=O)O)NC(=O)[C@H](CC(=O)O)NC(=O)[C@H](CC(C)C)NC(=O)[C@@H](NC(=O)[C@@H](NC(=O)[C@H](C)NC(=O)[C@H](CC(C)C)NC(=O)[C@H](CCC(=O)O)NC(=O)[C@H](CO)NC(=O)[C@@H](NC(=O)[C@H](Cc1ccccc1)NC(=O)[C@@H](NC(=O)CNC(=O)[C@H](CCC(=O)O)NC(=O)C(C)(C)NC(=O)[C@@H](N)Cc1c[nH]cn1)[C@@H](C)O)[C@@H](C)O)[C@@H](C)O)[C@@H](C)CC)[C@@H](C)CC)C(=O)N[C@@H](C)C(=O)N[C@@H](Cc1c[nH]cn1)C(=O)N[C@@H](CCCCN)C(=O)N[C@H](C(=O)N[C@H](C(=O)N[C@@H](CC(=O)O)C(=O)O)[C@@H](C)O)[C@@H](C)CC [Compound 33] (H-H[Aib]EGTFTSELATILDEQAARDFINWLIAHKITD-OH)	0.004	0.041
CC[C@H](C)[C@H](NC(=O)[C@H](Cc1ccccc1)NC(=O)[C@H](CC(=O)O)NC(=O)[C@H](CCCNC(=N)N)NC(=O)[C@H](C)NC(=O)[C@H](C)NC(=O)[C@H](CCC(N)=O)NC(=O)[C@H](CCC(=O)O)NC(=O)[C@H](CC(=O)O)NC(=O)[C@H](CC(C)C)NC(=O)[C@@H](NC(=O)[C@@H](NC(=O)[C@H](C)NC(=O)[C@H](CC(C)C)NC(=O)[C@H](CCC(=O)O)NC(=O)[C@H](CO)NC(=O)[C@@H](NC(=O)[C@H](Cc1ccccc1)NC(=O)[C@@H](NC(=O)CNC(=O)[C@H](CCC(=O)O)NC(=O)C(C)(C)NC(=O)[C@@H](N)Cc1c[nH]cn1)[C@@H](C)O)[C@@H](C)O)[C@@H](C)O)[C@@H](C)CC)C(=O)N[C@@H](CC(N)=O)C(=O)N[C@@H](Cc1c[nH]c2ccccc12)C(=O)N[C@@H](CC(C)C)C(=O)N[C@@H](CCCCN)C(=O)N[C@@H](CCC(=O)O)C(=O)N[C@@H](CCC(N)=O)C(=O)N[C@@H](CCCCN)C(=O)N[C@H](C(=O)N[C@H](C(=O)N[C@@H](CC(=O)O)C(=O)O)[C@@H](C)O)[C@@H](C)CC [Compound 37] (H-H[Aib]EGTFTSELATILDEQAARDFINWLKEQKITD-OH)	0.007	0.16
CC[C@H](C)[C@H](NC(=O)[C@H](Cc1ccccc1)NC(=O)[C@H](CC(=O)O)NC(=O)[C@H](CCCNC(=N)N)NC(=O)[C@H](C)NC(=O)[C@H](C)NC(=O)[C@H](CCC(N)=O)NC(=O)[C@H](CCC(=O)O)NC(=O)[C@H](CC(=O)O)NC(=O)[C@H](CC(C)C)NC(=O)[C@@H](NC(=O)[C@@H](NC(=O)[C@H](C)NC(=O)[C@H](CC(C)C)NC(=O)[C@H](CCC(=O)O)NC(=O)[C@H](CO)NC(=O)[C@@H](NC(=O)[C@H](Cc1ccccc1)NC(=O)[C@@H](NC(=O)CNC(=O)[C@H](CCC(=O)O)NC(=O)C(C)(C)NC(=O)[C@@H](N)Cc1c[nH]cn1)[C@@H](C)O)[C@@H](C)O)[C@@H](C)O)[C@@H](C)CC)C(=O)N[C@@H](C)C(=O)N[C@@H](Cc1c[nH]c2ccccc12)C(=O)N[C@@H](CC(C)C)C(=O)N[C@@H](Cc1ccc(O)cc1)C(=O)N[C@@H](C)C(=O)N[C@@H](Cc1c[nH]cn1)C(=O)N[C@@H](CCCCN)C(=O)N[C@H](C(=O)N[C@H](C(=O)N[C@@H](CC(=O)O)C(=O)O)[C@@H](C)O)[C@@H](C)CC [Compound 14] (H-H[Aib]EGTFTSELATILDEQAARDFIAWLYAHKITD-OH)	0.021	0.049

Continued by falling EC50 [1], values first:

EC50 [1] [nM]	EC50 [2] [nM]	Structure (SMILES)
0.006	0.026	CC[C@H](C)[C@H](NC(=O)[C@H](Cc1ccccc1)NC(=O)[C@H](CC(=O)O)NC(=O)[C@H](CCCNC(=N)N)NC(=O)[C@H](C)NC(=O)[C@H](C)NC(=O)[C@H](CCC(N)=O)NC(=O)[C@H](CCC(=O)O)NC(=O)[C@H](CC(=O)O)NC(=O)[C@H](CC(C)C)NC(=O)[C@@H](NC(=O)[C@@H](NC(=O)[C@H](C)NC(=O)[C@H](CC(C)C)NC(=O)[C@H](CCC(=O)O)NC(=O)[C@H](CO)NC(=O)[C@@H](NC(=O)[C@H](Cc1ccccc1)NC(=O)[C@@H](NC(=O)CNC(=O)[C@H](CCC(=O)O)NC(=O)C(C)(C)NC(=O)[C@@H](N)Cc1c[nH]cn1)[C@@H](C)O)[C@@H](C)O)[C@@H](C)O)[C@@H](C)CC)C(=O)N[C@@H](C)C(=O)N[C@@H](Cc1c[nH]c2ccccc12)C(=O)N[C@@H](CC(C)C)C(=O)N[C@H](C(=O)N[C@@H](CCCCN)C(=O)N[C@@H](Cc1c[nH]cn1)C(=O)N[C@@H](CCCCN)C(=O)N[C@H](C(=O)N[C@H](C(=O)N[C@@H](CC(=O)O)C(=O)O)[C@@H](C)O)[C@@H](C)CC)[C@@H](C)CC [Compound 16] (H-H[Aib]EGTFTSELATILDEQAARDFIAWLIKHKITD-OH)
0.005	0.05	CC[C@H](C)[C@H](NC(=O)[C@H](CC(C)C)NC(=O)[C@H](Cc1c[nH]c2ccccc12)NC(=O)[C@H](C)NC(=O)[C@@H](NC(=O)[C@H](Cc1ccccc1)NC(=O)[C@H](CC(=O)O)NC(=O)[C@H](CCCNC(=N)N)NC(=O)[C@H](C)NC(=O)[C@H](C)NC(=O)[C@H](CCC(N)=O)NC(=O)[C@H](CCC(=O)O)NC(=O)[C@H](CC(=O)O)NC(=O)[C@H](CC(C)C)NC(=O)[C@@H](NC(=O)[C@@H](NC(=O)[C@H](CO)NC(=O)[C@H](CC(C)C)NC(=O)[C@H](CCC(=O)O)NC(=O)[C@H](CO)NC(=O)[C@@H](NC(=O)[C@H](Cc1ccccc1)NC(=O)[C@@H](NC(=O)CNC(=O)[C@H](CCC(=O)O)NC(=O)C(C)(C)NC(=O)[C@@H](N)Cc1c[nH]cn1)[C@@H](C)O)[C@@H](C)O)[C@@H](C)O)[C@@H](C)CC)[C@@H](C)CC)C(=O)N[C@@H](C)C(=O)N[C@@H](Cc1c[nH]cn1)C(=O)N[C@@H](CCCCN)C(=O)N[C@H](C(=O)N[C@H](C(=O)N[C@@H](CC(=O)O)C(=O)O)[C@@H](C)O)[C@@H](C)CC [Compound 10] (H-H[Aib]EGTFTSELSTILDEQAARDFIAWLIAHKITD-OH)
0.005	0.038	CC[C@H](C)[C@H](NC(=O)[C@H](Cc1ccccc1)NC(=O)[C@H](CC(=O)O)NC(=O)[C@H](CCCNC(=N)N)NC(=O)[C@H](C)NC(=O)[C@H](C)NC(=O)[C@H](CCC(N)=O)NC(=O)[C@H](CCC(=O)O)NC(=O)[C@H](CC(=O)O)NC(=O)[C@H](CC(C)C)NC(=O)[C@@H](NC(=O)[C@@H](NC(=O)[C@H](C)NC(=O)[C@H](CC(C)C)NC(=O)[C@H](CCC(=O)O)NC(=O)[C@H](CO)NC(=O)[C@@H](NC(=O)[C@H](Cc1ccccc1)NC(=O)[C@@H](NC(=O)CNC(=O)[C@H](CCC(=O)O)NC(=O)C(C)(C)NC(=O)[C@@H](N)Cc1c[nH]cn1)[C@@H](C)O)[C@@H](C)O)[C@@H](C)O)[C@@H](C)CC)C(=O)N[C@@H](C)C(=O)N[C@@H](Cc1c[nH]c2ccccc12)C(=O)N[C@@H](CC(C)C)C(=O)N[C@H](C(=O)N[C@@H](CCC(N)=O)C(=O)N[C@@H](Cc1c[nH]cn1)C(=O)N[C@@H](CCCCN)C(=O)N[C@H](C(=O)N[C@H](C(=O)N[C@@H](CC(=O)O)C(=O)O)[C@@H](C)O)[C@@H](C)CC)[C@@H](C)CC [Compound 15] (H-H[Aib]EGTFTSELATILDEQAARDFIAWLIQHKITD-OH)
